Key:
Syk kinase = biological target: T1, Syk kinase (Homo sapiens, UniProt P43405); assay: ELISA-based Syk kinase assay (phosphorylation of HS1 peptide substrate by isolated Syk kinase); format: biochemical; conditions: IC50 of Syk kinase inhibition; 2 μM ATP, 2 μM peptide substrate
T1 construct: purchased Millipore 14-314
Method: Compounds were tested for the ability to inhibit Syk kinase catalyzed phosphorylation of a peptide substrate in an assay with isolated Syk kinase.
An assay was carried out in a Costar white 96 well plate (Fisher Scientific, Cat No. 07-200-591) coated overnight with 0.01 mg/ml Neutravidin (Pierce, 100 μl/well) at 4° C. Neutravidin pre-coated 96 well plates were blocked with 2% BSA in PBST buffer for at least 1 hour before starting the assay at room temperature. Serially diluted compound stock solution containing a subject compound was prepared separately in DMSO solution starting from 300 μM and 2 μl of this diluted compound (3% DMSO final concentration) was added directly to neutravidin coated assay plate containing 55.5 μl/well of kinase reaction buffer composed of 20 mM HEPES, pH 7.4, 5 mM MgCl2, 2 mM MnCl2, 1 mM DTT, 0.01% Tween 20 pre-mixed with ATP and kinase substrate (HS1 peptide). Reaction was initiated by adding of 2.5 μl/well Syk kinase (Millipore, Cat No. 14-314) resulting in a final reaction volume of 60 μl and then the reaction was allowed to continue for 30 minutes at room temperature. Final enzyme reaction conditions were 20 mM HEPES, pH 7.4, 5 mM MgCl2, 2 mM MnCl2, 1 mM DTT, 0.01% Tween 20, 0.25 ng Syk, 2 μM ATP, 2 μM peptide substrate (Biotin-EQEDEPEGDYEEVLE-CONH2, SynPep Corporation). After completing the reaction, assay plate was washed three times with PBST and incubated for 1 hour at room temperature with 100 μl/well of phosphopeptide detection antibody solution prepared by mixing 1-1000 diluted mouse anti-pTyr monoclonal antibody (Cell Signal Technology, Cat No. 9411) and 1-1000 diluted goat HRP-conjugated anti-mouse IgG (Jackson Immunoresearch, Cat. No. 115-035-003). Before developing the plate with supersignal ELISA pico chemiluminescent substrate (Pierce), plate was washed three times again with PBST and were read on a SpectraMax M5 microplate reader (Moleculear Devices).

[1] = system: Human mast cells (CHMC cells); assay: Tryptase release assay (mast cell degranulation induced by anti-IgG FcγR cross-linking); format: cell-based; conditions: IC50 of tryptase release from human mast cells after anti-IgG stimulation, read-out: LD Tryptase
Method: Compounds were assayed for inhibition of mast cell activation induced by FcγR cross-linking by measuring the activity of tryptase released upon degranulation as follows:
Human mast cells were cultured and differentiated from […] progenitor cell as described in U.S. Patent Publication No. 2005-234049, incorporated herein by reference. For example, 65 μl of various concentrations of the compound to be assayed were prepared in MT (137 mM NaCl, 2.7 mM KCl, 1.8 mM CaCl2, 1.0 mM MgCl2, 5.6 mM Glucose, 20 mM Hepes (pH 7.4), 0.1% Bovine Serum Albumin, (Sigma A4503)) containing 2% MeOH and 1% DMSO, or control buffer were added to duplicate 96-well V-bottom plates. Pelleted and resuspended (in warm MT) CHMC cells (65 μl) were added to each 96-well plate, mixed and incubated for 1 hour at 37° C. 25 μl of 6× anti-IgG Rabbit anti-human IgG, Affinity purified (Bethyl Laboratories Cat No. A80-105A3) final concentration 1 μg/ml, was added to the test wells. MT (25 μl) was added to control wells. After a 60-minute incubation at 37° C., cells and cell debris were pelleted by centrifugation at 1000 rpm for 10 min and tryptase and leukotriene C4 levels were measured.
To measure tryptase levels, 25 μl of supernatant from each well was transferred to a fresh 96-well black bottom plate, to which 100 μl of fresh tryptase substrate solution [(Z-Ala-Lys-Arg-AMC2TFA; Enzyme Systems Products, #AMC-246)] 1:2000 in tryptase assay buffer [0.1 M Hepes (pH 7.5), 10% w/v Glycerol, 10 μM Heparin (Sigma H-4898) 0.01% NaN3] was added. After 30 minute incubation at room temperature, the optical density of the plates is measured at 355 nm/460 nm on a spectrophotometric plate reader. Table 2 provides the IC50 values.

SMILES	IC50 (Syk kinase)	IC50 [1]
COc1ccc(Nc2c(-c3ccc(NC(C)=O)cc3)[nH]c3c(C#N)cnn23)cc1OC [Compound 2]	0.51 to 2.99 µM	< 10 µM
CC(=O)Nc1ccc(-c2[nH]c3c(C#N)cnn3c2Nc2cccc(C(F)(F)F)c2)cc1 [Compound 3]	0.51 to 2.99 µM	11 to 100 µM
COc1ccc2[nH]cc(-c3[nH]c4c(C#N)cnn4c3Nc3ccc(OC)c(OC)c3)c2c1 [Compound 4]	0.51 to 2.99 µM	< 10 µM
COc1ccc(Nc2c(-c3ccc4[nH]ccc4c3)[nH]c3c(C#N)cnn23)cc1OC [Compound 5]	0.51 to 2.99 µM	< 10 µM
COc1ccc(Nc2c(-c3ccc4cc[nH]c4c3)[nH]c3c(C#N)cnn23)cc1OC [Compound 6]	0.51 to 2.99 µM	< 10 µM
COc1ccc(Nc2c(-c3ccc(Oc4ccccc4)cc3)[nH]c3c(C#N)cnn23)cc1OC [Compound 8]	3 to 25 µM	< 10 µM
COC(=O)c1cccc(Nc2c(-c3ccc4c(c3)NC(=O)CO4)[nH]c3c(C#N)cnn23)c1 [Compound 10]	0.51 to 2.99 µM	11 to 100 µM
COc1cccc(Nc2c(-c3cc(OC)c(OC)c(OC)c3)[nH]c3c(C#N)cnn23)c1 [Compound 14]	0.51 to 2.99 µM	< 10 µM
COc1cc(-c2[nH]c3c(C#N)cnn3c2Nc2ccc(Br)cc2)cc(OC)c1OC [Compound 23]	0.51 to 2.99 µM	< 10 µM
COc1ccc2c(-c3[nH]c4c(C#N)cnn4c3Nc3ccc(OC)c(OC)c3)c[nH]c2c1 [Compound 24]	0.51 to 2.99 µM	< 10 µM
COc1cc(-c2[nH]c3c(C#N)cnn3c2Nc2ccc(N3CCOCC3)cc2)cc(OC)c1OC [Compound 25]	0.51 to 2.99 µM	< 10 µM
COc1ccc(Nc2c(-c3cc(OC)c(OC)c(OC)c3)[nH]c3c(C#N)cnn23)cc1OC [Compound 28]	< 0.5 µM	< 10 µM
COc1cc(-c2[nH]c3c(C#N)cnn3c2Nc2cccc(NC(C)=O)c2)cc(OC)c1OC [Compound 30]	0.51 to 2.99 µM	< 10 µM
COc1ccc(-c2[nH]c3c(C#N)cnn3c2Nc2cccc(NC(C)=O)c2)cc1OC [Compound 32]	0.51 to 2.99 µM	< 10 µM
CSc1ccc(-c2[nH]c3c(C#N)cnn3c2Nc2cccc(NC(C)=O)c2)cc1 [Compound 33]	0.51 to 2.99 µM	< 10 µM
COc1ccc(Nc2c(-c3ccc4c(c3)OCCO4)[nH]c3c(C#N)cnn23)cc1OC [Compound 38]	0.51 to 2.99 µM	> 5000 µM

SMILES	IC50 (Syk kinase)	IC50 [1]
N#Cc1cnn2c(Nc3ccc(N4CCOCC4)cc3)c(-c3ccc4c(c3)NC(=O)CO4)[nH]c12 [Compound 43]	3 to 25 µM	11 to 100 µM
COc1cccc(Nc2c(-c3ccc4cc[nH]c4c3)[nH]c3c(C#N)cnn23)c1 [Compound 44]	3 to 25 µM	< 10 µM
N#Cc1cnn2c(Nc3ccc(Br)cc3)c(-c3ccc4c(c3)NC(=O)CO4)[nH]c12 [Compound 45]	0.51 to 2.99 µM	101 to 5000 µM
CC(=O)Nc1cccc(Nc2c(-c3ccc4cc[nH]c4c3)[nH]c3c(C#N)cnn23)c1 [Compound 47]	0.51 to 2.99 µM	< 10 µM
COc1ccc(Nc2c(-c3ccc(S(C)(=O)=O)cc3)[nH]c3c(C#N)cnn23)cc1OC [Compound 48]	0.51 to 2.99 µM	< 10 µM
COc1cc(-c2[nH]c3c(C#N)cnn3c2Nc2ccc3c(c2)OCCO3)cc(OC)c1OC [Compound 49]	0.51 to 2.99 µM	< 10 µM
N#Cc1cnn2c(Nc3ccc4c(c3)OCCO4)c(-c3ccc4c(c3)NC(=O)CO4)[nH]c12 [Compound 50]	0.51 to 2.99 µM	> 5000 µM
COc1ccc(Nc2c(-c3ccc4c(c3)OCO4)[nH]c3c(C#N)cnn23)cc1OC [Compound 51]	0.51 to 2.99 µM	< 10 µM
COc1cc(-c2[nH]c3c(C#N)cnn3c2Nc2ccc(CN)cc2)cc(OC)c1OC [Compound 66]	3 to 25 µM	
COC(=O)c1cccc(Nc2c(-c3cc(OC)c(OC)c(OC)c3)[nH]c3c(C#N)cnn23)c1 [Compound 67]	0.51 to 2.99 µM	
CC(=O)Nc1ccc(Nc2c(-c3ccc4c(c3)NC(=O)CO4)[nH]c3c(C#N)cnn23)cc1 [Compound 68]	3 to 25 µM	
COc1ccc(-c2[nH]c3c(C#N)cnn3c2Nc2ccc(NC(C)=O)cc2)cc1OC [Compound 69]	0.51 to 2.99 µM	
COc1cc(-c2[nH]c3c(C#N)cnn3c2Nc2ccc3c(c2)OCCO3)cc(O)c1OC [Compound 70]	0.51 to 2.99 µM	
COC(=O)c1ccc(Nc2c(-c3cc(O)c(OC)c(OC)c3)[nH]c3c(C#N)cnn23)cc1 [Compound 71]	0.51 to 2.99 µM	
COc1cc(-c2[nH]c3c(C#N)cnn3c2NCC2CCN(C(=O)OC(C)(C)C)CC2)cc(OC)c1OC [Compound 73]	3 to 25 µM	
COc1cc(-c2[nH]c3c(C#N)cnn3c2NCC2CCNCC2)cc(OC)c1OC [Compound 74]	3 to 25 µM	

The remaining lines, values ahead:

IC50 (Syk kinase)	IC50 [1]	SMILES
0.51 to 2.99 µM		COc1cc(-c2[nH]c3c(C#N)cnn3c2Nc2ccc(N3CCC(N4CCCC4)CC3)c(F)c2)cc(OC)c1OC [Compound 75]
3 to 25 µM		COC(=O)[C@H](Cc1ccccc1)Nc1c(-c2cc(OC)c(OC)c(OC)c2)[nH]c2c(C#N)cnn12 [Compound 76]
0.51 to 2.99 µM		COC(=O)c1cccc(Nc2c(-c3ccc(OC)c(OC)c3)[nH]c3c(C#N)cnn23)c1 [Compound 77]
3 to 25 µM		COC(=O)c1cccc(Nc2c(-c3cc(Cl)c(OC)c(OC)c3)[nH]c3c(C#N)cnn23)c1 [Compound 78]
3 to 25 µM		COc1cc(Nc2c(-c3ccc(N4CCOCC4)cc3)[nH]c3c(C#N)cnn23)cc(OC)c1OC [Compound 79]
0.51 to 2.99 µM		N#Cc1cnn2c(Nc3ccc(Br)cc3)c(-c3ccc(N4CCOCC4)cc3)[nH]c12 [Compound 80]
3 to 25 µM		COc1cc(Nc2c(-c3ccc(C(N)=O)cc3)[nH]c3c(C#N)cnn23)cc(OC)c1OC [Compound 81]
3 to 25 µM		COc1ccc(-n2cc(C#N)c3nc(-c4cc(OC)c(OC)c(OC)c4)c(N)n32)cc1 [Compound 82]
0.51 to 2.99 µM		COC(=O)COc1ccc(-c2[nH]c3c(C#N)cnn3c2Nc2cccc(C(=O)OC)c2)cc1OC [Compound 84]
0.51 to 2.99 µM		COC(=O)c1cccc(Nc2c(-c3ccc(OC)c(OCC(=O)O)c3)[nH]c3c(C#N)cnn23)c1 [Compound 86]
0.51 to 2.99 µM		COc1cc(-c2[nH]c3c(C#N)cnn3c2Nc2cccc(OC(F)(F)F)c2)cc(OC)c1OC [Compound 110]
0.51 to 2.99 µM		COc1ccc(Nc2c(-c3cc(OC)c(OC)c(OC)c3)[nH]c3c(C#N)cnn23)cc1OC1CCCC1 [Compound 115]
0.51 to 2.99 µM		COc1cc(-c2[nH]c3c(C#N)cnn3c2Nc2ccc(C)c(F)c2)cc(OC)c1OC [Compound 121]
0.51 to 2.99 µM		COC(=O)COc1ccc(-c2[nH]c3c(C#N)cnn3c2Nc2ccc(F)c(OC)c2)cc1OC [Compound 123]
0.51 to 2.99 µM		COc1cc(Nc2c(-c3cc(OC)c(OC)c(OC)c3)[nH]c3c(C#N)cnn23)ccc1OC1CCCC1 [Compound 128]
0.51 to 2.99 µM		COc1cc(Nc2c(-c3cc(OC)c(OC)c(OC)c3)[nH]c3c(C#N)cnn23)ccc1OCCN1CCCC1 [Compound 129]
0.51 to 2.99 µM		COc1cc(-c2[nH]c3c(C#N)cnn3c2Nc2ccc(F)c(C(F)(F)F)c2)cc(OC)c1OC [Compound 130]
0.51 to 2.99 µM		COc1cc(-c2[nH]c3c(C#N)cnn3c2Nc2ccc(OC(F)(F)F)cc2)cc(OC)c1OC [Compound 131]
0.51 to 2.99 µM		COc1cc(-c2[nH]c3c(C#N)cnn3c2Nc2ccc(N3CCCC3)c(F)c2)cc(OC)c1OC [Compound 134]

— patent US8377945B2, “Small molecule inhibitors of spleen tyrosine kinase (SYK)” (Rigel Pharmaceuticals Inc., priority 2009, dated 2013)
